In a melting point compilation (Tetko et al.):

In the case of `O=C1c2ccccc2C(=O)C1(Br)c1ccccc1`, the melting point is reported as 106 to 107 °C.
In the case of `N#CCc1c[nH]c2ccccc12`, the melting point is reported as 36 °C.
With `S=C(NCC(c1ccccc1)c1ccccc1)Nc1ccccc1` the melting point was 171 °C.
Work on `Nc1cc(F)ccc1C(F)(F)F` yielded a melting point of 31 °C.
In the case of `S=C(NCCN1CCOCC1)NC1CCCCC1`, the melting point is reported as 125 to 126 °C.
With `CC(=O)Nc1ccc(/N=N/c2ccc(N(Nc3ccc(NC(C)=O)cc3)C(C)=O)cc2)cc1` the melting point was 218 °C.
`C/C=C/C=C(C)/C=N/Nc1ccc([N+](=O)[O-])cc1[N+](=O)[O-]` gave a melting point of 198 to 200 °C.
Work on `Cc1noc(-c2ccc(C(=O)Cl)cc2)n1` yielded a melting point of 115 to 117 °C.
`FC(F)(F)C(F)(F)C(F)(F)C(F)(F)N(C(F)(F)C(F)(F)C(F)(F)C(F)(F)F)C(F)(F)C(F)(F)C(F)(F)C(F)(F)F` showed a melting point of -50 °C.
Molecule `O=Cc1cc(F)ccc1[N+](=O)[O-]` has a melting point of 94.5 °C.
In the case of `CC1=CCCC1`, the melting point is reported as -126 °C.
Molecule `C=CCc1ccccc1` has a melting point of -40 °C.
Work on `CCCCSCCC(N)C(=O)O` (racemic) yielded a melting point of 238 to 243 °C.
Work on `COC(=O)c1sc2ccccc2c1Cl` yielded a melting point of 81 °C.
`O=C(c1ccco1)c1noc(-c2ccc(Br)cc2)c1S(=O)(=O)c1ccccc1` showed a melting point of 133 °C.
In the case of `CCCc1cc(C(N)=S)ccn1`, the melting point is reported as 137 °C.
`CC(C)SSC(C)C` gave a melting point of -69 °C.
`O=[N+]([O-])c1ccc2ncoc2c1` gave a melting point of 150 to 152 °C.
For `Cc1nc(C2CCN(C(=O)OC(C)(C)C)CC2)sc1CO`, the melting point was 150 to 153 °C.
In the case of `COc1ccc(-c2ccc(S(=O)(=O)Cl)cc2)cc1`, the melting point is reported as 103 to 106 °C.
`O=C(O)C=Cc1ccc([N+](=O)[O-])cc1` showed a melting point of 289 °C.
Molecule `N#Cc1c(F)cc(Br)cc1F` has a melting point of 81 °C.
For `Cc1c(Br)cc(N)c(N)c1C`, the melting point was 70 to 74 °C.
`O=C(Cl)c1cc2c(Cl)cc(Cl)cc2[nH]1` showed a melting point of 173 to 175 °C.
`Clc1nccc2ccc(Br)cc12` gave a melting point of 124 °C.
For `CCOC(=O)c1cc(-c2ccccc2)on1`, the melting point was 48 to 49.5 °C.
Work on `C=C(C)[C@H]1CC=C(C)C(=O)C1` yielded a melting point of 89 °C.
In the case of `OC12Cc3ccccc3C(O)(Cc3ccccc31)O2`, the melting point is reported as 160 to 167 °C.
`CC12CCC(O)C=C1CCC1C2CCC2(C)C(c3ccc(=O)oc3)CCC12O` (stereo unspecified) showed a melting point of 235 °C.
Work on `O=[N+]([O-])c1ccc(Br)c2cccc(C=Nc3ccccc3)c12` yielded a melting point of 232 °C.
`Cc1cnc(Br)c(N)c1` gave a melting point of 105 °C.
`O=[N+]([O-])c1ccc(Cc2ccncc2)cc1` gave a melting point of 71 °C.
With `CCOC(=O)CSc1nc(C)n[nH]1` the melting point was 99 to 101 °C.
With `C[Si](C)(C)C=C[Si](C)(C)C` the melting point was -18.5 °C.
`CC1CCc2cc(F)cc3c(=O)c(C(=O)O)cn1c23` (stereo unspecified) gave a melting point of 253 °C.
In the case of `Nc1nn2c(-c3ccccc3)cc(=O)[nH]c2c1/N=N/c1c(Br)cc(Br)cc1Br`, the melting point is reported as 316 °C.
With `COc1ccc(Br)c(C(=O)NN)c1` the melting point was 165 to 166 °C.
`CN(C)c1ccc(C(Cl)=NO)cc1` showed a melting point of 165 °C.
For `Brc1n[nH]c(Br)c1Br`, the melting point was 190 to 192 °C.
With `O=C(Cl)c1ccc(Oc2ccccc2)cc1` the melting point was 22 to 23 °C.
For `O=S(=O)(Cl)c1cccc(Br)c1`, the melting point was 32 °C.
Work on `NC(=O)C=CC(=O)O` yielded a melting point of 172 °C.
`CCCCCCCC(=O)NO` showed a melting point of 78.8 °C.
Work on `O=[N+]([O-])c1ccc(Sc2ccc([N+](=O)[O-])cc2)cc1` yielded a melting point of 160 °C.
`O=C(CBr)c1cccc(C(F)(F)F)c1` gave a melting point of 22 °C.
In the case of `OC1OC(C2COC3(CCCCC3)O2)C2OC3(CCCCC3)OC12` (stereo unspecified), the melting point is reported as 120 to 124 °C.
`O=C1COc2ccc(S(=O)(=O)Cl)cc2N1` showed a melting point of 178 °C.
`COc1cc(CCC(C)=NO)ccc1O` gave a melting point of 82 to 84 °C.
`COC(=O)c1ccc(I)c(C)c1` gave a melting point of 61 °C.
With `O=[N+]([O-])c1ccc(NN=C(c2ccccc2)c2ccccc2)cc1` the melting point was 156 °C.
Work on `COc1ccc(C2c3cc(OC)c(OC)cc3CCN2C(C)=O)cc1OC` (stereo unspecified) yielded a melting point of 164 to 165 °C.
In the case of `S=c1sc2ccccc2n1CCl`, the melting point is reported as 126 to 131 °C.
With `CCC(C)OC(C)CC` (stereo unspecified) the melting point was -100 °C.
`O=C(Nc1ccccc1)c1ccccc1[N+](=O)[O-]` gave a melting point of 154 °C.
Molecule `COc1ccc(N)cc1OC` has a melting point of 88 °C.
In the case of `CCCC=CCCC`, the melting point is reported as -90 °C.
`CC1CCCC(=O)C1=O` (stereo unspecified) gave a melting point of 58 °C.
For `O=C(O)C(F)C(F)(F)F` (stereo unspecified), the melting point was 28.2 to 29.2 °C.
Work on `NNC(=O)COc1ccc(Cl)cc1Cl` yielded a melting point of 153 to 157 °C.
`CC1(C)OC(=O)C(=Cc2ccc(-c3ccccc3[N+](=O)[O-])o2)C(=O)O1` showed a melting point of 153 °C.
With `CC12CCC(O)CC1CCC1C2C(O)CC2(C)C1CCC2(O)C(=O)CO` (stereo unspecified) the melting point was 244 °C.
Work on `CC1(C)C=[N+]([O-])C(C)(C)N1O` yielded a melting point of 160 to 163 °C.
For `ClCc1cc(Cl)cc2c1OCOC2`, the melting point was 101 °C.
For `O=C1c2ccccc2S(=O)(=O)N1CCCCN1CCN(c2ncccn2)CC1`, the melting point was 137 °C.
In the case of `CC1(C)OCC(C2OC3OC(C)(C)OC3C2O)O1` (stereo unspecified), the melting point is reported as 109 °C.
`CC(=O)N1C(=O)Cc2cc3c(cc21)N(C(C)=O)C(=O)C3` gave a melting point of 295 °C.
